# Reference: the supplement of paper PMC4862054
# How the values were obtained:
# Conditions in all cases: incubation time: 72 h
# CAL-148 [1] = test: normalised viability (% of control), CellTiter-Blue; higher = more viable cells (about 100 = DMSO control)
# Protocol: (§1)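 DSRT, CellTiter-Blue viability, 72 h incubation. Signal is normalised to DMSO and benzethonium chloride controls. Value is the normalised response at dose 9.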
# CAL-51 [2] = test: as above
# Protocol: as §1
# DU-4475 [3] = test: as above
# Protocol: as §1
# MDA-MB-453 [4] = test: as above
# Protocol: as §1
# CAL-85-1 [5] = test: as above
# Protocol: as §1
# HDQ-P1 [6] = test: as above
# Protocol: as §1
# MDA-MB-436 = test: normalised viability (% of control), CellTiter-Blue; higher = more viable cells (100 = DMSO, 0 = benzethonium chloride kill control)
# Protocol: (§2)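 DSRT, CellTiter-Blue viability, 72 h incubation. Signal is normalised to DMSO and benzethonium chloride controls. Value is the normalised response at dose 1.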
# CAL-148 [7] = test: as above
# Protocol: as §2
# CAL-51 [8] = test: as above
# Protocol: as §2
# DU-4475 [9] = test: as above
# Protocol: as §2
# BT-474 = test: as above
# Protocol: as §2
# MDA-MB-468 = test: as above
# Protocol: as §2
# MDA-MB-231 = test: as above
# Protocol: as §2
# Hs578T = test: as above
# Protocol: as §2
# HCC1599 = test: as above
# Protocol: as §2
# CAL-120 = test: as above
# Protocol: as §2
# MDA-MB-453 [10] = test: as above
# Protocol: as §2
# CAL-85-1 [11] = test: as above
# Protocol: as §2
# BT-549 = test: as above
# Protocol: as §2
# SK-BR-3 = test: as above
# Protocol: as §2
# MFM-223 = test: as above
# Protocol: as §2
# HDQ-P1 [12] = test: as above
# Protocol: as §2
# HCC1143 = test: as above
# Protocol: as §2
# HCC1937 = test: as above
# Protocol: as §2
# CAL-148 [13] = test: normalised viability (% of control), CellTiter-Blue; higher = more viable cells (about 100 = DMSO control); remark: listed apart in the source
# Protocol: (§3)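 DSRT, CellTiter-Blue viability, 72 h incubation. Signal is normalised to DMSO and benzethonium chloride controls. Value is the normalised response at dose 8.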
# CAL-51 [14] = test: as above; remark: listed apart in the source
# Protocol: as §3
# DU-4475 [15] = test: as above; remark: listed apart in the source
# Protocol: as §3
# MDA-MB-453 [16] = test: as above; remark: listed apart in the source
# Protocol: as §3
# CAL-85-1 [17] = test: as above; remark: listed apart in the source
# Protocol: as §3
# HDQ-P1 [18] = test: as above; remark: listed apart in the source
# Protocol: as §3
smiles,measurement,setting,value
Cc1ccc(C(=O)N(CCCN)[C@@H](c2oc3cc(Cl)ccc3c(=O)c2Cc2ccccc2)C(C)C)cc1 (1000 nM),normalised viability,CAL-148 [1],17.6%
same,normalised viability,CAL-51 [2],18.8%
same,normalised viability,DU-4475 [3],7.45%
same,normalised viability,MDA-MB-453 [4],24.6%
same,normalised viability,CAL-85-1 [5],32.5%
same,normalised viability,HDQ-P1 [6],72.4%
NC(=O)Nc1cc(-c2cccc(F)c2)sc1C(=O)N[C@H]1CCCNC1 [AZD 7762] (0.1 nM),normalised viability,MDA-MB-436,115%
same,normalised viability,CAL-148 [7],104%
same,normalised viability,CAL-51 [8],101%
same,normalised viability,DU-4475 [9],101%
same,normalised viability,BT-474,115%
same,normalised viability,MDA-MB-468,111%
same,normalised viability,MDA-MB-231,115%
same,normalised viability,Hs578T,124%
same,normalised viability,HCC1599,89%
same,normalised viability,CAL-120,102%
same,normalised viability,MDA-MB-453 [10],117%
same,normalised viability,CAL-85-1 [11],107%
same,normalised viability,BT-549,108%
same,normalised viability,SK-BR-3,102%
same,normalised viability,MFM-223,108%
same,normalised viability,HDQ-P1 [12],132%
same,normalised viability,HCC1143,115%
same,normalised viability,HCC1937,119%
NC(=O)Nc1cc(-c2cccc(F)c2)sc1C(=O)N[C@H]1CCCNC1 [AZD 7762] (1000 nM),normalised viability,CAL-148 [1],21.4%
same,normalised viability,CAL-51 [2],8.63%
same,normalised viability,DU-4475 [3],0.66%
same,normalised viability,MDA-MB-453 [4],19.6%
same,normalised viability,CAL-85-1 [5],22.8%
same,normalised viability,HDQ-P1 [6],18%
NCC(=O)CCC(=O)O [Aminolevulinic acid] (1 nM),normalised viability,MDA-MB-436,105%
same,normalised viability,CAL-148 [7],109%
same,normalised viability,CAL-51 [8],107%
same,normalised viability,DU-4475 [9],107%
same,normalised viability,BT-474,108%
same,normalised viability,MDA-MB-468,103%
same,normalised viability,MDA-MB-231,118%
same,normalised viability,Hs578T,104%
same,normalised viability,HCC1599,85%
same,normalised viability,CAL-120,86.6%
same,normalised viability,MDA-MB-453 [10],98.8%
same,normalised viability,CAL-85-1 [11],99.4%
same,normalised viability,BT-549,91.1%
same,normalised viability,SK-BR-3,89%
same,normalised viability,MFM-223,96.5%
same,normalised viability,HDQ-P1 [12],110%
same,normalised viability,HCC1143,91.7%
same,normalised viability,HCC1937,79.4%
NCC(=O)CCC(=O)O [Aminolevulinic acid] (10000 nM),normalised viability,CAL-148 [1],104%
same,normalised viability,CAL-51 [2],83.2%
same,normalised viability,DU-4475 [3],111%
same,normalised viability,MDA-MB-453 [4],87.7%
same,normalised viability,CAL-85-1 [5],76.9%
same,normalised viability,HDQ-P1 [6],106%
CCN(CCCOc1ccc2c(Nc3cc(CC(=O)Nc4cccc(F)c4)[nH]n3)ncnc2c1)CCOP(=O)(O)O [Barasertib] (0.1 nM),normalised viability,MDA-MB-436,118%
same,normalised viability,CAL-148 [7],105%
same,normalised viability,CAL-51 [8],95.4%
same,normalised viability,DU-4475 [9],123%
same,normalised viability,BT-474,109%
same,normalised viability,MDA-MB-468,112%
same,normalised viability,MDA-MB-231,113%
same,normalised viability,Hs578T,135%
same,normalised viability,HCC1599,105%
same,normalised viability,CAL-120,95.5%
same,normalised viability,MDA-MB-453 [10],93.3%
same,normalised viability,CAL-85-1 [11],105%
same,normalised viability,BT-549,103%
same,normalised viability,SK-BR-3,108%
same,normalised viability,MFM-223,102%
same,normalised viability,HDQ-P1 [12],96.5%
same,normalised viability,HCC1143,107%
same,normalised viability,HCC1937,104%
CCN(CCCOc1ccc2c(Nc3cc(CC(=O)Nc4cccc(F)c4)[nH]n3)ncnc2c1)CCOP(=O)(O)O [Barasertib] (1000 nM),normalised viability,CAL-148 [1],26.3%
same,normalised viability,CAL-51 [2],42%
same,normalised viability,DU-4475 [3],40.8%
same,normalised viability,MDA-MB-453 [4],44.1%
same,normalised viability,CAL-85-1 [5],81.2%
same,normalised viability,HDQ-P1 [6],96.2%
CC(=O)Nc1ccc(C(=O)Nc2ccccc2N)cc1 [CI-994] (0.1 nM),normalised viability,MDA-MB-436,91.2%
same,normalised viability,CAL-148 [7],100%
same,normalised viability,CAL-51 [8],89.6%
same,normalised viability,DU-4475 [9],93.2%
same,normalised viability,BT-474,86.4%
same,normalised viability,MDA-MB-468,98.9%
same,normalised viability,MDA-MB-231,91.9%
same,normalised viability,Hs578T,117%
same,normalised viability,HCC1599,92.6%
same,normalised viability,CAL-120,110%
same,normalised viability,MDA-MB-453 [10],101%
same,normalised viability,CAL-85-1 [11],98.3%
same,normalised viability,BT-549,92.6%
same,normalised viability,SK-BR-3,95.5%
same,normalised viability,MFM-223,105%
same,normalised viability,HDQ-P1 [12],107%
same,normalised viability,HCC1143,105%
same,normalised viability,HCC1937,102%
CC(=O)Nc1ccc(C(=O)Nc2ccccc2N)cc1 [CI-994] (1000 nM),normalised viability,CAL-148 [1],96.2%
same,normalised viability,CAL-51 [2],95.3%
same,normalised viability,DU-4475 [3],80.7%
same,normalised viability,MDA-MB-453 [4],101%
same,normalised viability,CAL-85-1 [5],98.5%
same,normalised viability,HDQ-P1 [6],108%
N.N.[Cl][Pt][Cl] [Cisplatin] (10000 nM),normalised viability,CAL-148 [1],105%
same,normalised viability,CAL-51 [2],105%
same,normalised viability,DU-4475 [3],112%
same,normalised viability,MDA-MB-453 [4],97.4%
same,normalised viability,CAL-85-1 [5],99.5%
same,normalised viability,HDQ-P1 [6],110%
C[C@@H](Oc1cc(-c2cnn(C3CCNCC3)c2)cnc1N)c1c(Cl)ccc(F)c1Cl [Crizotinib] (10000 nM),normalised viability,CAL-148 [1],48.6%
same,normalised viability,CAL-51 [2],31.2%
same,normalised viability,DU-4475 [3],11.7%
same,normalised viability,MDA-MB-453 [4],24.9%
same,normalised viability,CAL-85-1 [5],39.5%
same,normalised viability,HDQ-P1 [6],39.6%
C[C@]12CC[C@@H]3c4ccc(O)cc4C[C@@H](CCCCCCCCC[S+]([O-])CCCC(F)(F)C(F)(F)F)[C@H]3[C@@H]1CC[C@@H]2O (stereo partly drawn) [Fulvestrant] (10000 nM),normalised viability,CAL-148 [1],102%
same,normalised viability,CAL-51 [2],101%
same,normalised viability,DU-4475 [3],115%
same,normalised viability,MDA-MB-453 [4],66.8%
same,normalised viability,CAL-85-1 [5],99.3%
same,normalised viability,HDQ-P1 [6],113%
CC(C)Cn1cnc2c(N)nc3ccccc3c21 [Imiquimod] (1 nM),normalised viability,MDA-MB-436,107%
same,normalised viability,CAL-148 [7],98.1%
same,normalised viability,CAL-51 [8],101%
same,normalised viability,DU-4475 [9],110%
same,normalised viability,BT-474,90.6%
same,normalised viability,MDA-MB-468,109%
same,normalised viability,MDA-MB-231,85.8%
same,normalised viability,Hs578T,107%
same,normalised viability,HCC1599,109%
same,normalised viability,CAL-120,92.5%
same,normalised viability,MDA-MB-453 [10],108%
same,normalised viability,CAL-85-1 [11],108%
same,normalised viability,BT-549,105%
same,normalised viability,SK-BR-3,89.5%
same,normalised viability,MFM-223,97%
same,normalised viability,HDQ-P1 [12],104%
same,normalised viability,HCC1143,101%
same,normalised viability,HCC1937,118%
CC(C)Cn1cnc2c(N)nc3ccccc3c21 [Imiquimod] (10000 nM),normalised viability,CAL-148 [1],99%
same,normalised viability,CAL-51 [2],92%
same,normalised viability,DU-4475 [3],109%
same,normalised viability,MDA-MB-453 [4],75.2%
same,normalised viability,CAL-85-1 [5],100%
same,normalised viability,HDQ-P1 [6],105%
CN[C@@H]1C[C@H]2O[C@@](C)([C@@H]1OC)n1c3ccccc3c3c4c(c5c6ccccc6n2c5c31)C(=O)N[C@H]4O [UCN-01] (3000 nM),normalised viability,CAL-148 [13],41.7%
same,normalised viability,CAL-51 [14],6.6%
same,normalised viability,DU-4475 [15],1.19%
same,normalised viability,MDA-MB-453 [16],20.2%
same,normalised viability,CAL-85-1 [17],6.08%
same,normalised viability,HDQ-P1 [18],10.2%
Clc1ccc(Nc2nnc(Cc3ccncc3)c3ccccc23)cc1 [Vatalanib] (3000 nM),normalised viability,CAL-148 [13],75%
same,normalised viability,CAL-51 [14],104%
same,normalised viability,DU-4475 [15],111%
same,normalised viability,MDA-MB-453 [16],75.2%
same,normalised viability,CAL-85-1 [17],94%
same,normalised viability,HDQ-P1 [18],91.8%
CCC1=C[C@@H]2CN(C1)Cc1c([nH]c3ccccc13)[C@@](C(=O)OC)(c1cc3c(cc1OC)N(C)[C@H]1[C@@](O)(C(=O)OC)[C@H](OC(C)=O)[C@]4(CC)C=CCN5CC[C@]31[C@@H]54)C2 [Vinorelbine] (3000 nM),normalised viability,CAL-148 [13],20.1%
same,normalised viability,CAL-51 [14],16.6%
same,normalised viability,DU-4475 [15],15.8%
same,normalised viability,MDA-MB-453 [16],39.8%
same,normalised viability,CAL-85-1 [17],37.1%
same,normalised viability,HDQ-P1 [18],32.7%
Oc1nc(-c2ccc(C(F)(F)F)cc2)nc2c1CSCC2 [XAV-939] (3000 nM),normalised viability,CAL-148 [13],89.8%
same,normalised viability,CAL-51 [14],90.3%
same,normalised viability,DU-4475 [15],94.1%
same,normalised viability,MDA-MB-453 [16],95.4%
same,normalised viability,CAL-85-1 [17],94.1%
same,normalised viability,HDQ-P1 [18],76.8%
